According to ChEMBL document CHEMBL2074555 (Biochem Pharmacol, 1992):

Target: ATP-dependent translocase ABCB1 (Mus musculus, UniProt P21447)
Experiment: TP_TRANSPORTER: increase in Vinblastine intracellular accumulation in F4-6RADR cells
Type: functional, cell-based

Sequence of ATP-dependent translocase ABCB1 (P21447 whole entry): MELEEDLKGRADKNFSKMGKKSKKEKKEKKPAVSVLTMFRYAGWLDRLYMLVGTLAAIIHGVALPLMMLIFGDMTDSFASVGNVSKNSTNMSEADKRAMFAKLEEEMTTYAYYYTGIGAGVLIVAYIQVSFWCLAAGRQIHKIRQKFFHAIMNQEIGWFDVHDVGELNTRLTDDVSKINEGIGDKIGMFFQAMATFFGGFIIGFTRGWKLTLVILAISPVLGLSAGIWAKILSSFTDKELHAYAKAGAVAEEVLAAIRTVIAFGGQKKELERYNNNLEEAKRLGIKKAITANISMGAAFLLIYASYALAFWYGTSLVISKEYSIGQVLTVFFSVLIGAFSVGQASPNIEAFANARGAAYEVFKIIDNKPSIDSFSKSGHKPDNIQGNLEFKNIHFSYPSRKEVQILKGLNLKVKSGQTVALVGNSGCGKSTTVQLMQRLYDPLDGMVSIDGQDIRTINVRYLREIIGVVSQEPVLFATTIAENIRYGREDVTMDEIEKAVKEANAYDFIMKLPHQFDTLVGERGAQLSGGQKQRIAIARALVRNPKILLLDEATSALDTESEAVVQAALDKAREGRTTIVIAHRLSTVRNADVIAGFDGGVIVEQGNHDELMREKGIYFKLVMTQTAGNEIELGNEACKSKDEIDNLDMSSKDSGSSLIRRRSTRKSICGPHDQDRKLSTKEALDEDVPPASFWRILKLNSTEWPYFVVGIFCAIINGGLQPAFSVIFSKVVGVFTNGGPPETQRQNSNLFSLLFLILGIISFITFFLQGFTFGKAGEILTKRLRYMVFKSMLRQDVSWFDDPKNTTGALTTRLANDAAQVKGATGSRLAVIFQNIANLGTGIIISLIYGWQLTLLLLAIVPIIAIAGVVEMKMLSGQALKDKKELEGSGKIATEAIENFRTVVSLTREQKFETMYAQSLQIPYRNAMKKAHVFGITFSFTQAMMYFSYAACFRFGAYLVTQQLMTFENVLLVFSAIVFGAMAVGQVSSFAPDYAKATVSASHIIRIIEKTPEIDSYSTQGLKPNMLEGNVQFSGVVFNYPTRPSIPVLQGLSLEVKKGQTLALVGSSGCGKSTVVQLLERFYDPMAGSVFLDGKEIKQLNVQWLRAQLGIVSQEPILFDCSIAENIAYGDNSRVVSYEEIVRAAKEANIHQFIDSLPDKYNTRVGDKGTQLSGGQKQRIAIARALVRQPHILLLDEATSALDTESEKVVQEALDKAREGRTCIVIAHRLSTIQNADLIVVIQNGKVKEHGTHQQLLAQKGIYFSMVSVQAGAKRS

COc1cccc(CCN(C)CCCC(C#N)(c2ccc(OC)c(OC)c2)C(C)C)c1 (stereo not drawn)
Activity: inhibitor [+]

CC(C)C(C#N)(CCCN(C)CCc1ccccc1)c1ccccc1 (stereo not drawn) [EMOPAMIL]
Activity: inhibitor [+]

CCOC(=O)C1=C(C)NC(C)=C(C(=O)OC)C1c1cccc(Cl)c1Cl (stereo not drawn) [FELODIPINE]
Activity: inhibitor [+]

COc1ccc(CCN(C)CCCC(C#N)(c2cc(OC)c(OC)c(OC)c2)C(C)C)cc1OC (stereo not drawn) [GALLOPAMIL]
Activity: inhibitor [+]

COC(=O)C1=C(C)NC(C)=C(C(=O)OC(C)C)C1c1cccc2nonc12 (stereo not drawn) [ISRADIPINE]
Activity: inhibitor [+]

COC(=O)C1=C(C)NC(C)=C(C(=O)OCCCN2CCC(c3ccccc3)(c3ccccc3)CC2)[C@H]1c1cccc([N+](=O)[O-])c1 [NIGULDIPINE]
Activity: inhibitor [+]

COCCOC(=O)C1=C(C)NC(C)=C(C(=O)OC(C)C)C1c1cccc([N+](=O)[O-])c1 (stereo not drawn) [NIMODIPINE]
Activity: inhibitor [+]

CCOC(=O)C1=C(C)NC(C)=C(C(=O)OC)C1c1cccc([N+](=O)[O-])c1 (stereo not drawn) [NITRENDIPINE]
Activity: inhibitor [+]
